Assay results reported in patent publication US20090246292A1, “ANTIMICROBIAL FORMULATIONS COMPRISING A QUINONE AND A COPPER SALT” (priority 2006, published 2009).
Like-named read-outs stand apart in the source and are kept apart here.

Experiments:
[1] = test system: S. aureus ATCC 29213; assay: Disc diffusion assay (DDA), also supplemented
[2] = test system: P. acnes NCTC 737; assay: Minimum inhibitory concentration (MIC) assay; format: cell-based, Propionibacterium acnes
Source text: (§1) (a) Minimum Inhibitory Concentration (MIC) Assay
(§2) The culture media were as described above.
(§3) The assays included both negative (culture medium with no micro-organisms) and positive (culture medium plus diluting solvent plus micro-organism) controls.

[3] = test system: S. aureus ATCC 29213; assay: Synergy disc diffusion assay (SDDA), also supplemented;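 also: disc diffusion on Mueller-Hinton agar at pH 7.2, aerobic incubation at 37 °C lasting 19-20 h, two compounds assessed jointly for combined antimicrobial effect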
Method: (e) Synergy Disc Diffusion Assay (SDDA)
(§6) This is a variation on the DDA method, in which two compounds are tested together for their combined antimicrobial activity.
(§7) Two test compounds A and B were placed on a single paper disc and the above described DDA procedure repeated.
(f) Supplemented Disc Diffusion Assays
For assays using S. aureus ATCC 29213 the supplements used were sodium chloride (100 mM), lipid (Tween™ 80 at 1% v/v) and horse serum (5% v/v).

[4] = test system: S. aureus ATCC 29213; assay: Minimum inhibitory concentration (MIC) assay; format: cell-based, Staphylococcus aureus
Source text: as §1, §2, §3

[5] = test system: P. acnes NCTC 737; assay: Disc diffusion assay (DDA), also supplemented;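 also: paper disc carrying compound placed on inoculated Wilkins-Chalgren Anaerobe agar pH 6.0, with lipid or NaCl supplement where listed, anaerobic 37 °C for 72 h, inhibition zone diameter read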
Method: (§8) The propionibacteria were cultured and maintained on Wilkins-Chalgren Anaerobe Medium (agar and broth) at pH 6.0; all cultures were incubated anaerobically at 37° C. for 72 hours.
(d) Disc Diffusion Assay (DDA)
A sterile paper disc was impregnated with a sample of the test compound in a suitable solvent and 30 minutes allowed for the solvents to evaporate (where possible). The disc was then placed on an agar plate onto which the test micro-organism had been inoculated. The plate was then incubated under the conditions described above, following which it was examined visually for signs of bacterial growth. […] The diameter of this zone of “inhibition” was measured using a ProtoCOL™ automated zone sizer (Synbiosis, Cambridge, UK).
(f) Supplemented Disc Diffusion Assays
(§9) For assays using Propionibacterium spp. strains the supplements used in the examples below were lipid (either Tween™ 80 or triolein, both at 1% v/v) and sodium chloride (100 mM).

[6] = test system: P. acnes NCTC 737; assay: Minimum bactericidal concentration (MBC) assay; format: cell-based, Propionibacterium acnes
Method: (§4) (b) Minimum Bactericidal Concentration (MBC) Assay
(§5) Following incubation they were examined visually for bacterial growth.

[7] = test system: S. aureus ATCC 29213; assay: Minimum bactericidal concentration (MBC) assay; format: cell-based, Staphylococcus aureus
Method: as §4, §5

[8] = test system: P. acnes NCTC 737; assay: Synergy disc diffusion assay (SDDA), also supplemented
Method: as §8
(e) Synergy Disc Diffusion Assay (SDDA)
as §6, §7
(f) Supplemented Disc Diffusion Assays
as §9

[9] = copper salt alone, 200 μg per disc (silicate 62 μg), Tween 80 at 1% v/v
[10] = copper salt alone, 200 μg per disc (silicate 62 μg), salt and horse serum (5% v/v)
[11] = copper salt alone, 200 μg per disc (silicate 62 μg), sodium chloride (100 mM)
[12] = copper salt alone, P. acnes NCTC 737
[13] = copper salt + TBHQ on one disc, 200 μg of each (silicate 62 μg), salt and serum supplements
[14] = copper salt + TBHQ on one disc, 200 μg of each (silicate 62 μg), unsupplemented
[15] = copper salt + TBHQ vs larger zone of either compound alone, unsupplemented
[16] = copper salt + TBHQ, salt and serum supplements
[17] = copper salt + TBHQ, unsupplemented
[18] = copper salt alone, S. aureus ATCC 29213
[19] = copper salt alone, 200 μg per disc (silicate 62 μg), 1% (v/v) Tween 80
[20] = copper salt alone, 200 μg per disc (silicate 62 μg), salt and 1% (v/v) Tween 80
[21] = copper salt + TBHQ on one disc, 200 μg of each (silicate 62 μg), salt and lipid (1% (v/v) Tween 80)
[22] = copper salt + TBHQ, salt and lipid (1% (v/v) Tween 80)

Compound: On1ccccc1=S.On1ccccc1=S.[Cu] [Copper (II) pyrithione]
- DDA [1]: 20.51 mm
- DDA + lipid [1]: 15.25 mm
- DDA + salt [1]: 21.48 mm
- DDA + salt & serum [1]: 17.86 mm
- MIC [2]: 0.24 µg/mL
- MIC/MBC ratio [2]: 0.5
- SDDA area increase [3]: 150.13%
- SDDA increase [3]: 19.29 mm
- SDDA with TBHQ [3]: 52.45 mm
- SS SDDA area increase [3]: 66.12%
- SS SDDA increase [3]: 9.29 mm
- SS SDDA with TBHQ [3]: 41.43 mm
- MIC [4]: 0.49 µg/mL
- MIC/MBC ratio [4]: 1
- DDA [5]: 56.42 mm
- DDA + lipid [5]: 22.38 mm
- DDA + salt [5]: 43.21 mm
- DDA + salt & lipid [5]: 33.37 mm
- MBC [6]: 0.49 µg/mL
- MBC [7]: 0.49 µg/mL
- SDDA area increase [8]: 18.55%
- SDDA increase [8]: 5.01 mm
- SDDA with TBHQ [8]: 61.43 mm
- SL SDDA area increase [8]: 7.64%
- SL SDDA increase [8]: 1.25 mm
- SL SDDA with TBHQ [8]: 34.63 mm

Compound: O.O=C([O-])C(O)C(O)C(=O)[O-].[Cu+2] (stereo not drawn) [Copper (II) tartrate hydrate]
- DDA [1]: 0 mm
- DDA + lipid [1]: 0 mm
- DDA + salt [1]: 0 mm
- DDA + salt & serum [1]: 0 mm
- MIC [2]: 15.6 µg/mL
- MIC/MBC ratio [2]: 0.25
- SDDA area increase [3]: −88.71%
- SDDA increase [3]: −26.84 mm
- SDDA with TBHQ [3]: 13.58 mm
- SS SDDA area increase [3]: −94.19%
- SS SDDA increase [3]: −33.15 mm
- SS SDDA with TBHQ [3]: 10.53 mm
- MIC [4]: >250 µg/mL
- DDA [5]: 49.64 mm
- DDA + lipid [5]: 38.35 mm
- DDA + salt [5]: 48.25 mm
- DDA + salt & lipid [5]: 47.56 mm
- MBC [6]: 62.5 µg/mL
- MBC [7]: >250 µg/mL
- SDDA area increase [8]: 20.27%
- SDDA increase [8]: 4.8 mm
- SDDA with TBHQ [8]: 54.44 mm
- SL SDDA area increase [8]: 24.11%
- SL SDDA increase [8]: 5.42 mm
- SL SDDA with TBHQ [8]: 52.98 mm

Compound: Copper (I) oxide
- DDA + lipid [1, 9]: 0 mm
- DDA + salt & serum [1, 10]: 0 mm
- DDA + salt [1, 11]: 0 mm
- MIC [2, 12]: 1.95 µg/mL
- MIC/MBC ratio [2, 12]: 0.06
- SS SDDA with TBHQ [3, 13]: 45.26 mm
- SDDA with TBHQ [3, 14]: 57.05 mm
- SDDA increase [3, 15]: 16.63 mm
- SS SDDA area increase [3, 16]: 7.37%
- SS SDDA increase [3, 16]: 1.58 mm
- SDDA area increase [3, 17]: 99.21%
- MIC [4, 18]: >250 µg/mL
- DDA + lipid [5, 19]: 37.42 mm
- DDA + salt & lipid [5, 20]: 43.49 mm
- DDA + salt [5, 11]: 44.85 mm
- MBC [6, 12]: 31.25 µg/mL
- MBC [7, 18]: >250 µg/mL
- SL SDDA with TBHQ [8, 21]: 51.73 mm
- SDDA with TBHQ [8, 14]: 50.06 mm
- SDDA increase [8, 15]: 1.25 mm
- SL SDDA area increase [8, 22]: 41.48%
- SL SDDA increase [8, 22]: 8.24 mm
- SDDA area increase [8, 17]: 5.18%

Compound: Copper (II) salicylate
- DDA [1]: 0 mm
- DDA + lipid [1]: 0 mm
- DDA + salt [1]: 0 mm
- DDA + salt & serum [1]: 0 mm
- MIC [2]: 7.8 µg/mL
- MIC/MBC ratio [2]: 0.25
- SDDA area increase [3]: 61.52%
- SDDA increase [3]: 10.95 mm
- SDDA with TBHQ [3]: 51.37 mm
- SS SDDA area increase [3]: 9.37%
- SS SDDA increase [3]: 2.00 mm
- SS SDDA with TBHQ [3]: 45.68 mm
- MIC [4]: 250 µg/mL
- MIC/MBC ratio [4]: <1
- DDA [5]: 47.77 mm
- DDA + lipid [5]: 41.75 mm
- DDA + salt [5]: 46.08 mm
- DDA + salt & lipid [5]: 50.69 mm
- MBC [6]: 31.25 µg/mL
- MBC [7]: >250 µg/mL
- SDDA area increase [8]: 150.52%
- SDDA increase [8]: 27.84 mm
- SDDA with TBHQ [8]: 75.61 mm
- SL SDDA area increase [8]: 84.98%
- SL SDDA increase [8]: 18.25 mm
- SL SDDA with TBHQ [8]: 68.94 mm

Compound: Copper (II) silicate
- DDA + salt & serum ([1]; Example 9, single compound, salt and serum): 0.00 (±0.00) mm
- DDA + lipid [1, 9]: 0 mm
- DDA + salt & serum [1, 10]: 0 mm
- DDA + salt [1, 11]: 0 mm
- MIC [2, 12]: 4.84 µg/mL
- MIC/MBC ratio [2, 12]: 0.125
- SS SDDA with TBHQ [3, 13]: 57.26 mm
- SDDA with TBHQ [3, 14]: 71.79 mm
- SDDA increase [3, 15]: 31.37 mm
- SS SDDA area increase [3, 16]: 71.85%
- SS SDDA increase [3, 16]: 13.58 mm
- SDDA area increase [3, 17]: 215.45%
- MIC [4, 18]: >77.5 µg/mL
- DDA + salt & lipid ([5]; Example 8, single compound, salt and 1% (v/v) triolein): 42.56 (±2.18) mm
- DDA + lipid [5, 19]: 33.40 mm
- DDA + salt & lipid [5, 20]: 48.81 mm
- DDA + salt [5, 11]: 41.44 mm
- MBC [6, 12]: 38.75 µg/mL
- MBC [7, 18]: >77.5 µg/mL
- SL SDDA with TBHQ [8, 21]: 54.96 mm
- SDDA with TBHQ [8, 14]: 54.44 mm
- SDDA increase [8, 15]: 8.76 mm
- SL SDDA area increase [8, 22]: 26.80%
- SL SDDA increase [8, 22]: 6.15 mm
- SDDA area increase [8, 17]: 42.03%

Compound: Copper (II)-D-gluconate
- DDA [1]: 0 mm
- DDA + lipid [1, 9]: 0 mm
- DDA + salt & serum [1, 10]: 0 mm
- DDA + salt [1, 11]: 0 mm
- MIC [2, 12]: 62.5 µg/mL
- MIC/MBC ratio [2, 12]: 0.5
- SS SDDA with TBHQ [3, 13]: 53.37 mm
- SDDA with TBHQ [3, 14]: 68.32 mm
- SDDA increase [3, 15]: 27.90 mm
- SS SDDA area increase [3, 16]: 49.29%
- SS SDDA increase [3, 16]: 9.69 mm
- SDDA area increase [3, 17]: 185.69%
- MIC [4, 18]: >250 µg/mL
- DDA [5]: 45.37 mm
- DDA + lipid [5, 19]: 27.36 mm
- DDA + salt & lipid [5, 20]: 47.04 mm
- DDA + salt [5, 11]: 37.93 mm
- MBC [6, 12]: 125 µg/mL
- MBC [7, 18]: >250 µg/mL
- SL SDDA with TBHQ [8, 21]: 53.19 mm
- SDDA with TBHQ [8, 14]: 53.5 mm
- SDDA increase [8, 15]: 8.13 mm
- SL SDDA area increase [8, 22]: 27.88%
- SL SDDA increase [8, 22]: 6.15 mm
- SDDA area increase [8, 17]: 39.05%
